In data set [1] the test system is Monocotyledonous and dicotyledonous test plants. Briefly: Example B1 herbicidal action, application post-emergence (Table B1a). The format is in vivo. Conditions: 250 g/ha, evaluated after 3 weeks, scale 0-10. In a few lines: (§1)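 Compounds sprayed as aqueous solution from acetone/Emulsogen EL/NMP/dipropylene glycol monomethyl ether/X-77 formulation onto soil right after sowing (pre-emergence) or onto 8–9-day plants (post-emergence); greenhouse-grown. Damage scored 0 (none) to 10 (total) after 4 weeks pre- or 3 weeks post-emergence.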

Data set [2] shares this test system. Briefly: Example B2 herbicidal action, application pre-emergence, 96-cell seed trays (Table B2b). In kind it is in vivo. As to conditions: 1000 g/ha. The protocol:
Monocotyledonous and dicotyledonous test plants were sown in sterilised standard soil in seed trays each having 96 cells. After one day (pre-emergence) or after 8 to 9 days cultivation (post-emergence) under controlled conditions in a climatic chamber (cultivation at 17/23° C.; 13 hours light; 50-60% humidity; after application at 19/24° C.), the plants were treated with an aqueous spray solution of 1000 mg/l of the active ingredient used (rate of application: […]; incl. 10% DMSO as solvent). The plants were grown on in the climatic chamber until the test was evaluated (10 total damage to plant, 0=no damage to plant) after 9 or 13 days.

For data set [3] the test system is unchanged. Kind of data set: Example B1 herbicidal action, application pre-emergence (Table B1b). In kind it is in vivo. Conditions: 250 g/ha, evaluated after 4 weeks. In a few lines: as §1

In the case of `CC1(C)CC([S+]([O-])C(Cl)c2c(F)cccc2F)=NO1` (mixture of isomers) [1.24], in data set [1], the “herbicidal damage rating, Digitaria” value is 6; the “herbicidal damage rating, Panicum” value is on record as 6; the “herbicidal damage rating, Setaria” value was 6. Further, in data set [2], the “herbicidal action (damage rating 0-10), Agrostis” value (“herbicidal action … Agrostis” for short) is on record as 10; the “herbicidal action (damage rating 0-10), Digitaria” value (shortened to “herbicidal action … Digitaria”) turned out to be 10; the “herbicidal action (damage rating 0-10), Poa” value (“herbicidal action … Poa” for short) stood at 10; the “herbicidal action (damage rating 0-10), Setaria” value (from here on “herbicidal action … Setaria”) is recorded as 9. For the same compound, in data set [3], the “herbicidal action (damage rating 0-10), Amaranthus” value (“herbicidal action … Amaranthus” for short) worked out at 8; the “herbicidal action … Digitaria” value came out at 8; the “herbicidal action (damage rating 0-10), Panicum” value (from here on “herbicidal action … Panicum”) came to 10; the “herbicidal action … Setaria” value is reported as 7. For the same compound, the “herbicidal action (damage rating 0-10), Sida” value (from here on “herbicidal action … Sida”) in data set [3] stood at 4.
For `CC1(C)CC(S(=O)(=O)C(C)(Cl)c2c(F)cccc2F)=NO1` (stereo not drawn) [1.15], in data set [2], the “herbicidal action … Agrostis” value is on record as 2; the “herbicidal action … Digitaria” value turned out to be 9; the “herbicidal action … Poa” value was 10; the “herbicidal action … Setaria” value amounted to 9. Further, in data set [3], the “herbicidal action … Amaranthus” value came to 10; the “herbicidal action … Digitaria” value is on record as 9; the “herbicidal action … Panicum” value was found to be 10; the “herbicidal action … Setaria” value stood at 8. The “herbicidal action … Sida” value in data set [3] is 0.
`CC1(C)CC(S(=O)(=O)C(F)(F)c2c(F)cccc2F)=NO1` [1.20]: in data set [1], the “herbicidal damage rating, Abutilon” value worked out at 7; the “herbicidal damage rating, Amaranthus” value is recorded as 3; the “herbicidal damage rating, Digitaria” value came to 6; the “herbicidal damage rating, Panicum” value came to 0. In data set [1], the “herbicidal damage rating, Setaria” value is reported as 6 and the “herbicidal damage rating, Sida” value worked out at 5. Further, in data set [2], the “herbicidal action … Agrostis” value worked out at 10; the “herbicidal action … Digitaria” value stood at 10; the “herbicidal action … Poa” value is recorded as 10; the “herbicidal action … Setaria” value was 10. Further, in data set [3], the “herbicidal action … Amaranthus” value is recorded as 10; the “herbicidal action … Digitaria” value was found to be 10; the “herbicidal action … Panicum” value came out at 10; the “herbicidal action … Setaria” value is given as 10. In addition, in data set [3], the “herbicidal action … Sida” value is given as 9.
As for `Cc1cccc(C(CC=C(F)F)S(=O)(=O)C2=NOC(C)(C)C2)c1` (stereo not drawn) [1.29], in data set [2], the “herbicidal action … Agrostis” value came out at 10; the “herbicidal action … Digitaria” value is on record as 9; the “herbicidal action … Poa” value turned out to be 8; the “herbicidal action … Setaria” value is reported as 4. In data set [3], the “herbicidal action … Amaranthus” value is given as 2; the “herbicidal action … Digitaria” value is 3; the “herbicidal action … Panicum” value is 7; the “herbicidal action … Setaria” value is reported as 7. Also, the “herbicidal action … Sida” value in data set [3] is given as 0.
For the compound `CC1(C)CC(S(=O)(=O)C(C)(Br)c2c(F)cccc2F)=NO1` (stereo not drawn) [1.37], in data set [2], the “herbicidal action … Agrostis” value came to 10; the “herbicidal action … Digitaria” value came to 9; the “herbicidal action … Poa” value was found to be 10; the “herbicidal action … Setaria” value was determined as 9. Besides, in data set [3], the “herbicidal action … Amaranthus” value is given as 0; the “herbicidal action … Digitaria” value is 9; the “herbicidal action … Panicum” value is 9; the “herbicidal action … Setaria” value is given as 9. The “herbicidal action … Sida” value in data set [3] is given as 5.
For `CC1(C)CC(S(=O)(=O)C(c2c(F)cccc2F)S(=O)(=O)Cc2ccccc2)=NO1` (stereo not drawn) [1.39], in data set [2], the “herbicidal action … Agrostis” value amounted to 10; the “herbicidal action … Digitaria” value came to 5; the “herbicidal action … Poa” value was 10; the “herbicidal action … Setaria” value came to 3. Moreover, in data set [3], the “herbicidal action … Amaranthus” value amounted to 3; the “herbicidal action … Digitaria” value was 7; the “herbicidal action … Panicum” value turned out to be 7; the “herbicidal action … Setaria” value came to 3. In addition, the “herbicidal action … Sida” value in data set [3] came out at 0.
Consider `Cn1nc(C(F)(F)F)c(C(F)S(=O)(=O)C2=NOC(C)(C)C2)c1Cl` (stereo not drawn) [2.02], for which, in data set [2], the “herbicidal action … Agrostis” value was 10; the “herbicidal action … Digitaria” value came to 9; the “herbicidal action … Poa” value came to 10; the “herbicidal action … Setaria” value was 10.
With `CC1(C)CC(S(=O)(=O)C2(c3c(F)cccc3F)CC2)=NO1` [Compound No. 1.01, 3-[1-(2,6-difluoro-phenyl)-cyclopropanesulfonyl]-5,5-dimethyl-4,5-dihydroisoxazole], in data set [2], the “herbicidal action … Agrostis” value was 10; the “herbicidal action … Digitaria” value was 9; the “herbicidal action … Poa” value is 10; the “herbicidal action … Setaria” value was found to be 9. Also, in data set [3], the “herbicidal action … Amaranthus” value was determined as 2; the “herbicidal action … Digitaria” value worked out at 7; the “herbicidal action … Panicum” value amounted to 8; the “herbicidal action … Setaria” value came to 8. The “herbicidal action … Sida” value in data set [3] is recorded as 0.
Turning to `C#CCC(c1c(F)cccc1F)S(=O)(=O)C1=NOC(C)(C)C1` (stereo not drawn) [Compound No. 1.02], in data set [1], the “herbicidal damage rating, Abutilon” value is given as 0; the “herbicidal damage rating, Amaranthus” value amounted to 9; the “herbicidal damage rating, Digitaria” value was found to be 6; the “herbicidal damage rating, Panicum” value was found to be 10. Moreover, in data set [1], the “herbicidal damage rating, Setaria” value worked out at 7 and the “herbicidal damage rating, Sida” value is given as 5. Also, in data set [2], the “herbicidal action … Agrostis” value is given as 8; the “herbicidal action … Digitaria” value came out at 9; the “herbicidal action … Poa” value is 5; the “herbicidal action … Setaria” value worked out at 9. For the same compound, in data set [3], the “herbicidal action … Panicum” value came out at 6; the “herbicidal action … Setaria” value is on record as 3; the “herbicidal action … Sida” value was 0.
For the compound `CC1(C)CC(S(=O)(=O)C(Cc2ccc(F)cc2)c2c(F)cccc2F)=NO1` (stereo not drawn) [Compound No. 1.05, 3-[1-(2,6-difluoro-phenyl)-2-(4-fluoro-phenyl)-ethanesulfonyl]-5,5-dimethyl-4,5-dihydroisoxazole], the melting point – broadly, the temperature of the solid-liquid transition – was determined as 95 °C.
As to `CCOC(=O)CCC(c1c(F)cccc1F)S(=O)(=O)C1=NOC(C)(C)C1` (stereo not drawn) [Compound No. 1.08, 4-(2,6-difluoro-phenyl)-4-(5,5-dimethyl-4,5-dihydroisoxazole-3-sulfonyl)-butyric acid ethyl ester], in data set [2], the “herbicidal action … Agrostis” value is given as 7; the “herbicidal action … Digitaria” value stood at 8; the “herbicidal action … Poa” value is given as 9; the “herbicidal action … Setaria” value turned out to be 3.
Turning to `COC(=O)C(Cl)(c1c(F)cccc1F)S(=O)(=O)C1=NOC(C)(C)C1` (stereo not drawn) [Compound No. 1.14, chloro-(2,6-difluorophenyl)-(5,5-dimethyl-4,5-dihydroisoxazole-3-sulfonyl)-acetic acid methyl ester], in data set [1], the “herbicidal damage rating, Abutilon” value stood at 4; the “herbicidal damage rating, Digitaria” value worked out at 3; the “herbicidal damage rating, Panicum” value was 0; the “herbicidal damage rating, Setaria” value is recorded as 3. For the same compound, the “herbicidal damage rating, Sida” value in data set [1] amounted to 3. Also, in data set [2], the “herbicidal action … Agrostis” value was determined as 10; the “herbicidal action … Digitaria” value turned out to be 9; the “herbicidal action … Poa” value is reported as 10; the “herbicidal action … Setaria” value was found to be 10. In addition, in data set [3], the “herbicidal action … Amaranthus” value was 8; the “herbicidal action … Digitaria” value was 9; the “herbicidal action … Panicum” value is on record as 9; the “herbicidal action … Setaria” value came out at 9. Further, the “herbicidal action … Sida” value in data set [3] was 6.
`CC1(C)CC(S(=O)(=O)C(Cl)(CC=C(F)F)c2c(F)cccc2F)=NO1` (stereo not drawn) [Compound No. 1.17, 3-[1-chloro-1-(2,6-difluoro-phenyl)-4,4-difluoro-but-3-ene-1-sulfonyl]-5,5-dimethyl-4,5-dihydroisoxazole] registered a melting point of 113 °C.
On to `CC1(C)CC(S(=O)(=O)C2(c3c(F)cccc3F)CC2(Cl)Cl)=NO1` (stereo not drawn) [Compound No. 1.45, 3-[2,2-dichloro-1-(2,6-difluoro-phenyl)-cyclopropanesulfonyl]-5,5-dimethyl-4,5-dihydroisoxazole], for which, in data set [2], the “herbicidal action … Agrostis” value stood at 7; the “herbicidal action … Digitaria” value was 8; the “herbicidal action … Poa” value turned out to be 10; the “herbicidal action … Setaria” value is given as 6.
For the compound `COCC(=O)C(c1c(F)cccc1F)S(=O)(=O)C1=NOC(C)(C)C1` (stereo not drawn) [Compound No. 1.59], in data set [2], the “herbicidal action … Agrostis” value is 9; the “herbicidal action … Digitaria” value was 8; the “herbicidal action … Poa” value is recorded as 10; the “herbicidal action … Setaria” value is recorded as 9.
